{"source": "patent US10821084B2", "about": "“Dihydromyricetin compositions” (REMY BIOSCIENCES, INC., priority 2018, dated 2020)", "key": {"[1]": {"test": "In vitro transdermal flux of cannabinoids from monolithic patches, Franz Diffusion Cell method", "format": "in vitro ADME, human", "settings": "for stimulation of cumulative CBD flux versus no dihydromyricetin: 15% CBD patch", "source_text": "Transdermal flux of cannabinoids can be measured In Vitro through human cadaver epidermis using Franz Diffusion Cell Method. Samples of 300 microliters can be taken of the receiving solution and analyzed by HPLC for amount ofcannabinoid substance that passed through the epidermis.\nFlux is preferably measured using human cadaver skin with a Franz Diffusion Cell (see, Kristof (2017) Feasibility of transdermal delivery of Cyclosporine A using plasma discharges. Biointerphases. 12:02B402). Flux can be measured where the temperature of the Franz Diffusion Cell (and solutions inside the Franz Diffusion Cell) are held constant at about 17 degrees C., about 20 degrees C., about 23 degrees C. (“room temperature”), about 26 degrees C., about 30 degrees C., about 33 degrees C., about 37 degrees C. (mammalian body temperature), about 40 degrees C., and so on.\nFor each figure, the number of hours that flux was allowed to occur was twentyfour hours (24 hours). The data for each figure used a monolithic patch. Composition of the patch: PIB adhesive with 15% of CBD or 8% THC. Patch construction was adhesive layer attached to a backing polyethylene foam film. No additional overlays were used. Experiments were done using Franz Diffusion Cells using human cadaver skin."}, "[2]": {"settings": "patch measuring 20 cm^2, PIB adhesive and 10% CBD; cited from earlier work"}}, "data": [{"smiles": "C=C(C)[C@@H]1CCC(C)=C[C@H]1c1c(O)cc(CCCCC)cc1O", "note": "[CBD, cannabidiol]", "values": [{"measurement": "control net flux of CBD", "setting": "[1]; control monolithic patch without any dihydromyricetin, 15% CBD, over a period of 24 hours", "value": "about 155 micrograms CBD per square centimeter of skin"}, {"measurement": "cumulative transdermal flux of CBD", "setting": "[1]; monolithic PIB patch, 15% CBD, 0% dihydromyricetin, 24 hours, FIG. 2 first bar", "value": "about 155 micrograms/cm^2"}, {"measurement": "cumulative transdermal flux of CBD", "setting": "[1]; monolithic PIB patch, 15% CBD, 3% dihydromyricetin, 24 hours, FIG. 2 second bar", "value": "about 195 micrograms/cm^2"}, {"measurement": "cumulative transdermal flux of CBD", "setting": "[1]; monolithic PIB patch, 15% CBD, 5% dihydromyricetin, 24 hours, FIG. 2 third bar", "value": "about 230 micrograms/cm^2"}, {"measurement": "net flux of CBD", "setting": "[1]; monolithic PIB patch, 15% CBD, with dihydromyricetin, over a period of 24 hours", "value": "at least 195 micrograms CBD per square centimeter of skin"}, {"measurement": "daily systemic dose of CBD deliverable", "setting": "[2]", "value": "about 5 mg"}]}, {"smiles": "CCCCCc1cc(O)c2c(c1)OC(C)(C)[C@@H]1CCC(C)=C[C@@H]21", "note": "[THC, tetrahydrocannabinol]", "values": [{"measurement": "control net flux of THC", "setting": "[1]; control monolithic patch without any dihydromyricetin, 8% THC, over a period of 24 hours", "value": "about 90 micrograms THC per square centimeter of skin"}, {"measurement": "cumulative transdermal flux of THC", "setting": "[1]; monolithic PIB patch, 8% THC, 0.5% dihydromyricetin, 24 hours, FIG. 1 third bar", "value": "about 145 micrograms/cm^2"}, {"measurement": "cumulative transdermal flux of THC", "setting": "[1]; monolithic PIB patch, 8% THC, 3% oleic acid, 24 hours, FIG. 1 second bar", "value": "about 110 micrograms/cm^2"}, {"measurement": "cumulative transdermal flux of THC", "setting": "[1]; monolithic PIB patch, 8% THC, no enhancer, 24 hours, FIG. 1 first bar", "value": "about 90 micrograms/cm^2"}, {"measurement": "net flux of THC", "setting": "[1]; monolithic PIB patch, 8% THC, with dihydromyricetin, over a period of 24 hours", "value": "at least 145 micrograms THC per square centimeter of skin"}]}, {"smiles": "O=C1c2c(O)cc(O)cc2O[C@H](c2cc(O)c(O)c(O)c2)[C@H]1O", "note": "[dihydromyricetin]", "values": [{"measurement": "stimulation of cumulative THC flux versus no dihydromyricetin", "setting": "[1]; 8% THC patch, 5% dihydromyricetin (third histogram bar), 24 hours", "value": "about 61%"}, {"measurement": "stimulation of cumulative CBD flux versus no dihydromyricetin", "setting": "[1]; 3% dihydromyricetin, 24 hours", "value": "about 25%"}, {"measurement": "stimulation of cumulative CBD flux versus no dihydromyricetin", "setting": "[1]; 5% dihydromyricetin, 24 hours", "value": "about 48%"}, {"measurement": "increase of CBD flux through skin (factor)", "setting": "[1]; dermal patch formulation that includes CBD, human cadaver skin", "value": "three-fold"}]}]}
